{"source": "patent US20050282208A1", "about": "“Cellular phenotype” (Cytokinetics, Inc., priority 2004, published 2005)", "key": {"SKOV3 cells [1]": {"tested_on": "SKOV3 cells", "assay": "Image analysis of treated SKOV3 cells: mitotic index and interphase phenotype distance from control", "format": "cell-based", "settings": "for Impact on mitotic index / Impact on interphase features (combined distance from normal interphase phenotype): FIG. 5A, multiple concentrations; for Impact on mitotic index: 40 uM maximum; for Impact on interphase features (combined distance from normal interphase phenotype): 40 uM maximum (Taxol 0.8 uM maximum)", "source_text": "In one specific example, a particular group of cellular features for characterizing the interphase phenotype of a cell could include, for all cells that are not mitotic: • the average size of cell nuclei; • the average elliptical axis ratio for nuclei; • the average kurtosis intensity of cells; • the average pixel intensity for Golgi apparatus in cells; • the average cell area; • the elliptical axis ratio for cells; • the form factor (area divided by perimeter) for cells; • the kurtosis of the intensity of tubulin; • the second moment of a cell; • the average total intensity of tubulin for each cell; • the proportion of branched (i.e. having projections) cells.\nIn one embodiment, after each cellular feature has been characterized, and similarly for the control group cellular features, a distance in multivariate space may be calculated. This can be the distance from a normal interphase phenotype as presented in the horizontal axis of FIG. 5A (described below). For the purposes of simplicity of discussion, if it is assumed that there are only three cellular features (a, b, c) comprising the interphase phenotype signature, and where the subscript ‘t’ refers to a feature of a treated cell and the subscript ‘c’ refers to a feature of a control cell, then the distance (L1) in multivariate space between the interphase signature of the treated cells and interphase signature of the control cells can be calculated as L1=|at−ac|+|bt−bc|+|ct−cc|, which provides the interphase metric.\nFIG. 5A presents data showing that certain compounds producing the rice phenotype have very little effect on phenotypic features of interphase cells. In FIG. 5A, the vertical axis presents mitotic index, which is a measure of a compound's ability to cause mitotic arrest (thereby its ability to have a profound effect on the phenotype of mitotic cells), and the horizontal axis presents a “combined distance” from a normal interphase phenotype. The combined distance takes into account various features that characterize interphase phenotype, including those described above (i.e., the average size of cell nuclei, the average elliptical axis ratio for nuclei, the average kurtosis intensity of cells, etc.) Greater values on the horizontal axis indicate greater deviations from a control phenotype for interphase cells.\nFIG. 5B is a profile graph showing that the interphase cells treated with rice compounds track interphase control cells for various interphase phenotypic features. These features include, as shown on the horizontal axis, the relative number of objects (putative cells), the average area occupied by DNA in the objects (presumably nuclei), the average axes ratio of the DNA regions in the objects, the average kurtosis of the Golgi regions, the mean intensity of the Golgi regions, average area encompassed by tubulin in the objects, the average axes ratio of tubulin in the objects, the average kurtosis of the tubulin regions, the average form factor of the tubulin regions, the average moment of the tubulin regions, the average total intensity of tubulin in each object, and the branching properties of the tubulin in the objects. Note that the cells used to generate this graph were treated with markers for Golgi (LC for labeled LC Lectin), DNA (HO for Hoechst stain), and tubulin (DM for labeled DM1-α). As shown, the rice features closely track those of the DMSO treated cells and diverge strongly from the interphase cells of Taxol treated cells.\nThe data of FIG. 5B were obtained by treating SKOV3 cells with many different compounds and then capturing the interphase characteristics shown in the horizontal axis using image analysis techniques. The concentration of each compound was chosen by determining what concentration of a compound produced a mitotic index between 14 and 17% after cells were treated at multiple concentrations and then imaged to capture Golgi, tubulin, and DNA data for the interphase features shown in FIG. 5B. […]"}, "SKOV3 cells [2]": {"tested_on": "SKOV3 cells", "assay": "Mitotic spindle length in tubulin marker images of SKOV3 cells", "format": "cell-based", "source_text": "In accordance with this invention, the length of a bipolar mitotic spindle may be measured as the separation distance between the spindle poles. To make such measurement, mitotic spindles are observed by a suitable technique such as one that employs a marker for a specific component of the spindle. For example, the technique may involve treating cells with a marker for tubulin and then imaging them under conditions that illuminate such marker. This facilitates automated identification of the mitotic spindle and measurement of its length using image analysis algorithms. […]\nThe data in this table was obtained for SKOV3 cells (ovarian cancer cell line) treated with DMSO (control) and a compound that produces the rice phenotype. […] In the table, “n” is the number of cells that were analyzed to generate a mean length in micrometers as indicated and associated standard deviation. Spindle lengths were measured manually in this example.\nManual measurements were taken from one image each of DMSO, rice compound 4-(3-Bromo-4-hydroxy-5-methoxy-phenyl)-6-methyl-2-oxo-1,2,3,4-tetrahydro-pyrimidine-5-carboxylic acid 1,2,2-trimethyl-propyl ester at 40 uM, and a mitotic kinesin inhibitor at 40 uM using MetaMorph Imaging Software. Lines were drawn between what was manually determined to be the ends of the mitotic spindle. […]"}, "SKOV3 cells [3]": {"tested_on": "SKOV3 cells", "assay": "Image analysis of treated SKOV3 cells: mitotic index and interphase phenotype distance from control", "format": "cell-based"}, "A549 cells": {"tested_on": "A549 cells", "assay": "Cell line specificity: mitotic index, number of objects and rice phenotype in A549 cells", "format": "cell-based, human", "settings": "wide range of concentrations, FIG. 7A", "source_text": "(§1) But it is apparently immune to all anti-mitotic agents.\n(§2) As shown, the discrepancy exists over a wide range of concentrations. The two effects depicted in FIG. 7A are number of objects (a measure of the compound's cell killing strength) and mitotic index (fraction of the cells in a population that are in the mitotic phase)."}, "DU145 cells": {"tested_on": "DU145 cells", "assay": "Cell line specificity: mitotic index, number of objects and rice phenotype in DU145 cells", "format": "cell-based", "protocol": "as §1, §2\nFIG. 7B compares phenotypes of DU145 cells that were treated with 4-(3-Bromo-4-hydroxy-5-methoxy-phenyl)-6-methyl-2-oxo-1,2,3,4-tetrahydro-pyrimidine-5-carboxylic acid 1,2,2-trimethyl-propyl ester (top panel) to phenotypes of DU145 cells that were treated with a different compound (bottom panel). […] Note that the other compound produces a phenotype bearing some resemblance to the rice phenotype in SKOV3 cells. Specifically, it produces mitotic spindles that are somewhat elongated. […] This was not observed with the other compound."}, "60 cell lines": {"tested_on": "60 cell lines", "settings": "NCI panel data; cited from earlier work"}, "[4]": {"settings": "wide range of concentrations, FIG. 7A"}, "[5]": {"settings": "SK0V3 cell line, wide range of concentrations, FIG. 7A"}}}
{"smiles": "COc1cc(C2NC(=O)N(C)C(C)=C2C(=O)OC2CCCC2)cc(Br)c1O", "note": "(centres unmarked) [4-(3-Bromo-4-hydroxy-5-methoxy-phenyl)-1,6-dimethyl-2-oxo-1,2,3,4-tetrahydro-pyrimidine-5-carboxylic acid cyclopentyl ester]", "values": [{"measurement": "Impact on mitotic index", "setting": "SKOV3 cells [1]", "result": "significant impact on mitotic index"}, {"measurement": "Impact on interphase features (combined distance from normal interphase phenotype)", "setting": "SKOV3 cells [1]", "result": "minimal impact on interphase features"}, {"measurement": "Mitotic spindle length compared to control cells", "setting": "SKOV3 cells [2]; 40 uM for 24 hours, control 0.4% DMSO, FIG. 2A", "result": "significantly longer than spindles in normal cells"}, {"measurement": "Organization of nuclear DNA in interphase cells compared to control", "setting": "SKOV3 cells [3]; 40 uM for 24 hours, GFP-Histone, FIG. 6A", "result": "similarly organized in rice interphase cells as it is in normal interphase cells"}]}
{"smiles": "COc1cc(C2NC(=O)NC(C)=C2C(=O)OC(C)C(C)(C)C)cc(Br)c1O", "note": "(centres unmarked) [4-(3-Bromo-4-hydroxy-5-methoxy-phenyl)-6-methyl-2-oxo-1,2,3,4-tetrahydro-pyrimidine-5-carboxylic acid 1,2,2-trimethyl-propyl ester]", "values": [{"measurement": "Impact on mitotic index", "setting": "SKOV3 cells [1]", "result": "significant impact on mitotic index"}, {"measurement": "Impact on interphase features (combined distance from normal interphase phenotype)", "setting": "SKOV3 cells [1]", "result": "minimal impact on interphase features"}, {"measurement": "Effect on cell number (number of objects)", "setting": "A549 cells", "result": "limited effect"}, {"measurement": "Effect on mitotic index", "setting": "A549 cells", "result": "limited effect"}, {"measurement": "Induction of the rice phenotype", "setting": "DU145 cells; tubulin staining, FIG. 7B", "result": "produces a rice phenotype"}, {"measurement": "Effect on cell number (number of objects)", "setting": "DU145 cells; [4]", "result": "significant affects"}, {"measurement": "Effect on mitotic index", "setting": "DU145 cells; [4]", "result": "significant affects"}, {"measurement": "Effect on cell number (number of objects)", "setting": "SKOV3 cells [3]; [5]", "result": "significant affects"}, {"measurement": "Effect on mitotic index", "setting": "SKOV3 cells [3]; [5]", "result": "significant affects"}, {"measurement": "Induction of the rice phenotype", "setting": "SKOV3 cells [3]; SKOV3 cells", "result": "clearly manifest"}]}
{"smiles": "CC(=O)O[C@H]1C(=O)[C@@]2(C)[C@H]([C@H](OC(=O)c3ccccc3)[C@]3(O)C[C@H](OC(=O)[C@H](O)[C@@H](NC(=O)c4ccccc4)c4ccccc4)C(C)=C1C3(C)C)[C@]1(OC(C)=O)CO[C@@H]1C[C@@H]2O", "note": "[Taxol, reference compound]", "values": [{"measurement": "Impact on interphase features (combined distance from normal interphase phenotype)", "setting": "SKOV3 cells [1]", "result": "widely separated from the control interphase phenotype"}, {"measurement": "Interphase phenotypic features profile compared to control", "setting": "SKOV3 cells [1]; FIG. 5B, SKOV3 cells, concentrations inducing approximately 15% mitotic arrest", "result": "vary to a greater degree"}, {"measurement": "Production of elongated metaphase spindles", "setting": "SKOV3 cells [2]", "result": "do not produce elongated metaphase spindles"}, {"measurement": "Effect on cell number (number of objects)", "setting": "A549 cells", "result": "robust response"}, {"measurement": "Effect on mitotic index", "setting": "A549 cells", "result": "robust response"}, {"measurement": "Potency differences between cell types", "setting": "60 cell lines", "result": "over 3 orders of magnitude"}]}
